The source made the active and inactive calls. The rule behind the calls is not given here.
How the values were obtained:
[1] = Cmax in ICR mouse at 5 mg/kg, po by LC-MS/SM analysis; format: ADME, organism-based; set-up: dose 5 mg/kg, route oral; settings: in vivo
[2] = biological target: PI3-kinase p110-alpha/p85-alpha (Homo sapiens, UniProt P42336); test: Inhibition of recombinant human N-terminal FLAG-tagged full-length p110alpha/human p85alpha expressed in Sf9 insect cells using PIP2 as substrate by kinase-glo assay
[3] = Kinetic solubility of the compound in pH 7.4 incubated for 120 mins by HPLC-MS/MS analysis; settings: buffer, pH 7.4, 2 h
Mus musculus [4] = organism: Mus musculus; test: Inhibition of class 1 PI3K in mouse Mlg2908 cells assessed as reduction in AKT phosphorylation at S473 residue measured after 3 hrs by Western blot analysis; format: cell-based
[5] = buffer, pH 7.4, 1 h
Description: Thermodynamic solubility of the compound in pH 7.4 PBS incubated for 1 hr by LC-MS/MS analysis

PI3K p110 beta/p85 alpha = PI3K p110 beta/p85 alpha (Homo sapiens, UniProt P42338); test: Inhibition of recombinant human N-terminal FLAG-tagged full-length p110beta/human p85alpha expressed in Sf9 insect cells using PIP2 as substrate by ADP-glo assay
[6] = AUC (0 to infinity) in ICR mouse at 0.5 mg/kg, iv by LC-MS/SM analysis; format: ADME, organism-based; set-up: dose 0.5 mg/kg, time infinity, route intravenous; settings: in vivo
[7] = Oral bioavailability in ICR mouse at 5 mg/kg by LC-MS/SM analysis; format: ADME, organism-based; settings: in vivo
[8] = biological target: PI3-kinase p110-delta/p85-alpha (Homo sapiens, UniProt O00329); test: Inhibition of recombinant human N-terminal GST-tagged full-length p110delta/human p85alpha expressed in Sf9 insect cells using PIP2 as substrate by ADP-glo assay
[9] = Half life in ICR mouse at 0.5 mg/kg, iv by LC-MS/SM analysis; format: ADME, organism-based; settings: in vivo
Mus musculus [10] = organism: Mus musculus; test: Inhibition of class 1 PI3K in mouse Mlg2908 cells assessed as reduction in AKT phosphorylation at T308 residue measured after 3 hrs by Western blot analysis; format: cell-based
[11] = Clearance in ICR mouse at 0.5 mg/kg, iv by LC-MS/SM analysis; format: ADME, organism-based; settings: in vivo
Mus musculus [12] = organism: Mus musculus; test: Inhibition of class 1 PI3K in mouse Mlg2908 cells assessed as reduction in S6RP phosphorylation measured after 3 hrs by Western blot analysis; format: cell-based
[13] = Apparent permeability across apical to basolateral side in human Caco2 cells measured after 90 mins by LC-MS/MS analysis; settings: Caco-2
Mus musculus [14] = organism: Mus musculus; test: Inhibition of class 1 PI3K in mouse Mlg2908 cells assessed as reduction in p70S6K phosphorylation measured after 3 hrs by Western blot analysis; format: cell-based
[15] = simulated gi fluid, pH 6.5, 1 h
Description: Thermodynamic solubility of the compound in pH 6.5 FaSSIF incubated for 1 hr by LC-MS/MS analysis

[16] = AUC (0 to infinity) in ICR mouse at 5 mg/kg, po by LC-MS/SM analysis; format: ADME, organism-based; set-up: dose 5 mg/kg, route oral, time infinity; settings: in vivo
[17] = Half life in ICR mouse at 5 mg/kg, po by LC-MS/SM analysis; format: ADME, organism-based; settings: in vivo
[18] = Volume of distribution at steady state in ICR mouse at 0.5 mg/kg, iv by LC-MS/SM analysis; format: ADME, organism-based; settings: in vivo, read-out: Vdss
[19] = Apparent permeability across basolateral to apical side in human Caco2 cells measured after 90 mins by LC-MS/MS analysis; settings: Caco-2
[20] = biological target: T1, Phosphatidylinositol 4,5-bisphosphate 3-kinase catalytic subunit gamma isoform (Homo sapiens, UniProt P48736); test: Inhibition of recombinant human N-terminal His-tagged full-length p120gamma expressed in Sf9 insect cells using PIP2 as substrate by ADP-glo assay
Target sequence in this assay (P48736 whole entry, canonical isoform): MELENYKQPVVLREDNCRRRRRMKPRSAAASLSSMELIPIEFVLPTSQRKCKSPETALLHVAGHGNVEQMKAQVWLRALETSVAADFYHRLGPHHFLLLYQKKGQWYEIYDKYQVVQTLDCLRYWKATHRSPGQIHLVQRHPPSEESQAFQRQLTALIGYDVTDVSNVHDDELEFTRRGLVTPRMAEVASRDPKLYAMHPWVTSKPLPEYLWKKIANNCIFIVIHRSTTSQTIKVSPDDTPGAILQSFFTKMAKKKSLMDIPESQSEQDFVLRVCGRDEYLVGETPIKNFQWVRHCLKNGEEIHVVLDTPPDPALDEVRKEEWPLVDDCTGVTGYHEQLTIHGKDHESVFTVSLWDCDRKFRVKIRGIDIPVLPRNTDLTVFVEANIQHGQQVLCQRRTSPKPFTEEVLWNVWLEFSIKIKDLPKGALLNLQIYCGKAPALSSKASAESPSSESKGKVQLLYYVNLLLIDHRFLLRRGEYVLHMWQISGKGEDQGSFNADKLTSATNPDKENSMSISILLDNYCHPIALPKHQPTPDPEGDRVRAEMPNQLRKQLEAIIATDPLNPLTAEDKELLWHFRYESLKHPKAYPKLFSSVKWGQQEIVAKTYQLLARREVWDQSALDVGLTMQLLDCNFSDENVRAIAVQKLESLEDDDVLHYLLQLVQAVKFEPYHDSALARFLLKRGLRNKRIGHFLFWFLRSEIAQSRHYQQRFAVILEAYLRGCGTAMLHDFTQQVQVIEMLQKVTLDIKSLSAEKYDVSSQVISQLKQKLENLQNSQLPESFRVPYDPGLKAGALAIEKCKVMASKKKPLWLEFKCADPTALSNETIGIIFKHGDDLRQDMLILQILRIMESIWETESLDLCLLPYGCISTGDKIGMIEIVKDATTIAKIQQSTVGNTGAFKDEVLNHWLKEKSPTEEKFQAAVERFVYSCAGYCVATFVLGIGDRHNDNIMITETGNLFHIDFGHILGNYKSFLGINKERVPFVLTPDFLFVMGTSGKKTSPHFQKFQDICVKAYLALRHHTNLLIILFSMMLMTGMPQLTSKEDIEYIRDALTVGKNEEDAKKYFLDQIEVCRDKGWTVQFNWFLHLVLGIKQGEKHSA

[21] = Antifibrotic activity against mouse Mlg2908 cells assessed as reduction in cell viability measured after 72 hrs by MTT assay; format: functional, cell-based
Mus musculus [22] = test: (§1) Antifibrotic activity in bleomycin-induced C57BL/6 mouse model of pulmonary fibrosis assessed as reduction in lung fibronectin level at 30 mg/kg, po administered thrice daily for 18 days starting from 10 days post-bleomycin challenge and measured post last dose by Western blot analysis; format: functional, organism-based
Mus musculus [23] = test: as §1, with “alpha-SMA” for “fibronectin”, “immunostaining-based histopathological” for “Western blot”; format: functional, organism-based
Mus musculus [24] = test: Antifibrotic activity in bleomycin-induced C57BL/6 mouse model of pulmonary fibrosis assessed as reduction in respiratory system resistance at 30 mg/kg, po administered thrice daily for 18 days starting from 10 days post-bleomycin challenge and measured post last dose; format: functional, organism-based
Mus musculus [25] = test: Antifibrotic activity in bleomycin-induced C57BL/6 mouse model of pulmonary fibrosis assessed as reduction in respiratory system compliance at 30 mg/kg, po administered thrice daily for 18 days starting from 10 days post-bleomycin challenge and measured post last dose; format: functional, organism-based
Mus musculus [26] = test: Antifibrotic activity in bleomycin-induced C57BL/6 mouse model of pulmonary fibrosis assessed as reduction in lung hydroxyproline level at 30 mg/kg, po administered thrice daily for 18 days starting from 10 days post-bleomycin challenge and measured post last dose; format: functional, organism-based
Mus musculus [27] = test: as §1, with “damage” for “fibronectin level”, “H and E staining-based histopathological” for “Western blot”; format: functional, organism-based
Mus musculus [28] = test: Antifibrotic activity in bleomycin-induced C57BL/6 mouse model of pulmonary fibrosis assessed as reduction in respiratory system elastance at 30 mg/kg, po administered thrice daily for 18 days starting from 10 days post-bleomycin challenge and measured post last dose; format: functional, organism-based
Mus musculus [29] = test: (§2) Antifibrotic activity in bleomycin-induced C57BL/6 mouse model of pulmonary fibrosis assessed as reduction in lung index at 30 mg/kg, po administered thrice daily for 18 days starting from 10 days post-bleomycin challenge and measured post last dose; format: functional, organism-based
Mus musculus [30] = test: as §2, with “collagen fiber deposition” for “lung index”, “dose by Masson staining-based histopathological analysis” for “dose”; format: functional, organism-based
Mus musculus [31] = test: Antifibrotic activity in bleomycin-induced C57BL/6 mouse model of pulmonary fibrosis assessed as reduction in inspiratory capacity at 30 mg/kg, po administered thrice daily for 18 days starting from 10 days post-bleomycin challenge and measured post last dose; format: functional, organism-based
[32] = Dose normalized AUC in ICR mouse at 5 mg/kg, po by LC-MS/SM analysis; format: ADME, organism-based; settings: in vivo
Mus musculus [33] = test: Antifibrotic activity in bleomycin-induced C57BL/6 mouse model of pulmonary fibrosis assessed as reduction in respiratory system resistance at 1 mg/kg, po administered once daily for 18 days starting from 10 days post-bleomycin challenge and measured post last dose; format: functional, organism-based
Mus musculus [34] = test: (§3) Antifibrotic activity in bleomycin-induced C57BL/6 mouse model of pulmonary fibrosis assessed as reduction in inspiratory capacity at 1 mg/kg, po administered once daily for 18 days starting from 10 days post-bleomycin challenge and measured post last dose; format: functional, organism-based
Mus musculus [35] = test: Antifibrotic activity in bleomycin-induced C57BL/6 mouse model of pulmonary fibrosis assessed as reduction in respiratory system compliance at 1 mg/kg, po administered once daily for 18 days starting from 10 days post-bleomycin challenge and measured post last dose; format: functional, organism-based
[36] = biological target: T1, Phosphatidylinositol 4,5-bisphosphate 3-kinase catalytic subunit gamma isoform; test: Binding affinity to wild-type human partial length PIK3CG (S144 to A1102 residues) expressed in mammalian expression system assessed as residual binding level at 1 uM by kinomescan assay relative to control
Mus musculus [37] = test: Antifibrotic activity in bleomycin-induced C57BL/6 mouse model of pulmonary fibrosis assessed as reduction in lung index at 1 mg/kg, po administered once daily for 18 days starting from 10 days post-bleomycin challenge and measured post last dose; format: functional, organism-based
[38] = Toxicity in po dosed C57BL/6 mouse administered once daily via gavage for 7 days measured post-last dose; format: organism-based; settings: in vivo
[39] = biological target: Phosphatidylinositol 4,5-bisphosphate 3-kinase catalytic subunit alpha isoform (Homo sapiens) (UniProt P42336); test: Binding affinity to wild-type human partial length PIK3CA (R108 to N1068 residues) expressed in mammalian expression system assessed as residual binding level at 1 uM by kinomescan assay relative to control
Mus musculus [40] = test: as §3, with “collagen fiber deposition” for “inspiratory capacity”, “dose by Masson staining-based histopathological analysis” for “dose”; format: functional, organism-based
Mus musculus [41] = test: Antifibrotic activity in bleomycin-induced C57BL/6 mouse model of pulmonary fibrosis assessed as reduction in respiratory system elastance at 1 mg/kg, po administered once daily for 18 days starting from 10 days post-bleomycin challenge and measured post last dose; format: functional, organism-based
Mus musculus [42] = test: (§4) Antifibrotic activity in bleomycin-induced C57BL/6 mouse model of pulmonary fibrosis assessed as reduction in lung fibronectin level at 1 mg/kg, po administered once daily for 18 days starting from 10 days post-bleomycin challenge and measured post last dose by Western blot analysis; format: functional, organism-based
[43] = Toxicity in po dosed C57BL/6 mouse administered as single dose via gavage measured up to 7 days; format: organism-based; settings: in vivo
Mus musculus [44] = test: as §4, with “alpha-SMA” for “fibronectin”, “immunostaining-based histopathological” for “Western blot”; format: functional, organism-based
[45] = Therapeutic index, ratio of MTD in po dosed C57BL/6 mouse to compound effect for antifibrotic activity in bleomycin-induced C57BL/6 mouse model of pulmonary fibrosis; format: toxicity, organism-based; settings: in vivo, read-out: TI
[46] = biological target: Phosphatidylinositol 4-phosphate 3-kinase C2 domain-containing subunit beta (Homo sapiens) (UniProt O00750); test: Binding affinity to wild-type human partial length PIK3C2B (M1 to L1634 residues) expressed in mammalian expression system assessed as residual binding level at 1 uM by kinomescan assay relative to control
Mus musculus [47] = test: Antifibrotic activity in bleomycin-induced C57BL/6 mouse model of pulmonary fibrosis assessed as reduction in lung damage at 1 mg/kg, po administered once daily for 18 days starting from 10 days post-bleomycin challenge and measured post last dose by H and E staining-based histopathological analysis; format: functional, organism-based
Mus musculus [48] = test: Antifibrotic activity in bleomycin-induced C57BL/6 mouse model of pulmonary fibrosis assessed as reduction in lung hydroxyproline level at 1 mg/kg, po administered once daily for 18 days starting from 10 days post-bleomycin challenge and measured post last dose; format: functional, organism-based

PI3-kinase p110-alpha/p85-alpha, sequence (P27986 whole entry): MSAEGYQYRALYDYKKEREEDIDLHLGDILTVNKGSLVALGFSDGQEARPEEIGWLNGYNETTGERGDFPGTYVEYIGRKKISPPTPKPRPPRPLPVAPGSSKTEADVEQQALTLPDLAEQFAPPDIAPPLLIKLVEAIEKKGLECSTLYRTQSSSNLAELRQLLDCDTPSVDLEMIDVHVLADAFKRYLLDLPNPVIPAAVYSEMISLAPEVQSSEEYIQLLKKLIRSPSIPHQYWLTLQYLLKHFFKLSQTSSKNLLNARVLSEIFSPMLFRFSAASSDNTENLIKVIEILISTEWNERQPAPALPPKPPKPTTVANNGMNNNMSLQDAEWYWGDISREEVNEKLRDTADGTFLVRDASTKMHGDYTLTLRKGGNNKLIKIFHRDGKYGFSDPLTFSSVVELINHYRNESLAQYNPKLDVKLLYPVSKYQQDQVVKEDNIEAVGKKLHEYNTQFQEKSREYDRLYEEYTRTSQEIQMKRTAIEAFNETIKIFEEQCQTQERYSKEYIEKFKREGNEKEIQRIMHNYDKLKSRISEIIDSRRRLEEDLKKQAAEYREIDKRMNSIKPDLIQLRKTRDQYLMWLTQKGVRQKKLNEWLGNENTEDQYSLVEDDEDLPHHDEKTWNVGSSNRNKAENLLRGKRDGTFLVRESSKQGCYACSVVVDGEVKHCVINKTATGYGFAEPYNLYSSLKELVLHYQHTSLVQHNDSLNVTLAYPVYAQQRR
PI3-kinase p110-alpha/p85-alpha, sequence (P42336 whole entry): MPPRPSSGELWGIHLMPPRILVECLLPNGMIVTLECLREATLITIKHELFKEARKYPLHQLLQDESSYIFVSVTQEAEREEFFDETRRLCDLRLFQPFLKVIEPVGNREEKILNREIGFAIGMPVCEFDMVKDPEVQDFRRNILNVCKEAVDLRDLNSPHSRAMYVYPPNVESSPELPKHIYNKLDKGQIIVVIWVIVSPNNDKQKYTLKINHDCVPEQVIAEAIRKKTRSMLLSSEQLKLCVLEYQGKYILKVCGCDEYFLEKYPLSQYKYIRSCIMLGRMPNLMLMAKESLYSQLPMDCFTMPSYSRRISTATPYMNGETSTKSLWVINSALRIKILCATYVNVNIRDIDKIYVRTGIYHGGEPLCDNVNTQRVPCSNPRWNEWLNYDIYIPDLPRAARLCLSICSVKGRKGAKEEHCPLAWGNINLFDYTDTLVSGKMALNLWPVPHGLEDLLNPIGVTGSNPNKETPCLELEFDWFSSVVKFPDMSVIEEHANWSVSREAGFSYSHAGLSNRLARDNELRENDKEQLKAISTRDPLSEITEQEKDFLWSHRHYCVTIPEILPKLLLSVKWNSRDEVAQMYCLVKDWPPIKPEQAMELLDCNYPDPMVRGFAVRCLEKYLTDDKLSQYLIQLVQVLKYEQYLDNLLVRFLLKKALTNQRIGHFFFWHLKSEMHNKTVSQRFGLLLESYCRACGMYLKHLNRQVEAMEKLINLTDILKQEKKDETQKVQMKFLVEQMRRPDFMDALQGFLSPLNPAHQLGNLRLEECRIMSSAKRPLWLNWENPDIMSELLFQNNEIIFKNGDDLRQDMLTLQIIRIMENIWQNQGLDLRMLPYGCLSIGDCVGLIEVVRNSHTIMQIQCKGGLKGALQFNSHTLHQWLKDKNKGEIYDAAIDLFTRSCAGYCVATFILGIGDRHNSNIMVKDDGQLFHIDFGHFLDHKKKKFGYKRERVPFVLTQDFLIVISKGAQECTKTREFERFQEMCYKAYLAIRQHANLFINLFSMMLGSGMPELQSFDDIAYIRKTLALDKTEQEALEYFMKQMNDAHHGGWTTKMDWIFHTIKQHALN
PI3-kinase p110-delta/p85-alpha, sequence (P27986 whole entry): as the sequence (P27986 whole entry) above
PI3-kinase p110-delta/p85-alpha, sequence (O00329 whole entry): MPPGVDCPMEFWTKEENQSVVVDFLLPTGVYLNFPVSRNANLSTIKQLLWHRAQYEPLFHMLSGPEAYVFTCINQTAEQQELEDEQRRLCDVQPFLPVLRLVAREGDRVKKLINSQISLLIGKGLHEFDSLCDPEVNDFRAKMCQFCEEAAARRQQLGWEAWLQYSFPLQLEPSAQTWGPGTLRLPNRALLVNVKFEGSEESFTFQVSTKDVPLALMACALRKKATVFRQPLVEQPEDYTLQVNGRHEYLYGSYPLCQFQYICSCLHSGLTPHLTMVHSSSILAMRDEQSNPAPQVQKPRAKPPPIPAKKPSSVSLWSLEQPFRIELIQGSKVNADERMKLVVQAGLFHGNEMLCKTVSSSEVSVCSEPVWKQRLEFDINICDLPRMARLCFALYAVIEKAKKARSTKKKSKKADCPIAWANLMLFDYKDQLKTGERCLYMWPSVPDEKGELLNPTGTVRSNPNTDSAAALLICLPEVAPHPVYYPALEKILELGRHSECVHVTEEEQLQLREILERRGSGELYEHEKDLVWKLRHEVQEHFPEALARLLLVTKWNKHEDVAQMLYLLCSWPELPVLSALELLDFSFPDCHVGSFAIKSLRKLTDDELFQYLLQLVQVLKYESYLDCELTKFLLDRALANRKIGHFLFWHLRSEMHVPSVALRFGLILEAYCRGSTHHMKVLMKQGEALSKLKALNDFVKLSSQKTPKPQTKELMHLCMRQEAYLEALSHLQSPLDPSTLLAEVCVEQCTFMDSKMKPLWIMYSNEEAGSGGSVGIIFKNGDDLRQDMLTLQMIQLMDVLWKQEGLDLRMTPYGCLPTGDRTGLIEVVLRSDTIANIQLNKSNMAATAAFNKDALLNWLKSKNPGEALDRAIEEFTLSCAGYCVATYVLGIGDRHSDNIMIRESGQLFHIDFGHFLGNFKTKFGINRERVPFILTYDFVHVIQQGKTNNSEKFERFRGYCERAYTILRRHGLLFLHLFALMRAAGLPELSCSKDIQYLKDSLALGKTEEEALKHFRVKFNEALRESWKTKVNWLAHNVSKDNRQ
PI3K p110 beta/p85 alpha, sequence (P27986 whole entry): as the sequence (P27986 whole entry) above
PI3K p110 beta/p85 alpha, sequence (P42338 whole entry): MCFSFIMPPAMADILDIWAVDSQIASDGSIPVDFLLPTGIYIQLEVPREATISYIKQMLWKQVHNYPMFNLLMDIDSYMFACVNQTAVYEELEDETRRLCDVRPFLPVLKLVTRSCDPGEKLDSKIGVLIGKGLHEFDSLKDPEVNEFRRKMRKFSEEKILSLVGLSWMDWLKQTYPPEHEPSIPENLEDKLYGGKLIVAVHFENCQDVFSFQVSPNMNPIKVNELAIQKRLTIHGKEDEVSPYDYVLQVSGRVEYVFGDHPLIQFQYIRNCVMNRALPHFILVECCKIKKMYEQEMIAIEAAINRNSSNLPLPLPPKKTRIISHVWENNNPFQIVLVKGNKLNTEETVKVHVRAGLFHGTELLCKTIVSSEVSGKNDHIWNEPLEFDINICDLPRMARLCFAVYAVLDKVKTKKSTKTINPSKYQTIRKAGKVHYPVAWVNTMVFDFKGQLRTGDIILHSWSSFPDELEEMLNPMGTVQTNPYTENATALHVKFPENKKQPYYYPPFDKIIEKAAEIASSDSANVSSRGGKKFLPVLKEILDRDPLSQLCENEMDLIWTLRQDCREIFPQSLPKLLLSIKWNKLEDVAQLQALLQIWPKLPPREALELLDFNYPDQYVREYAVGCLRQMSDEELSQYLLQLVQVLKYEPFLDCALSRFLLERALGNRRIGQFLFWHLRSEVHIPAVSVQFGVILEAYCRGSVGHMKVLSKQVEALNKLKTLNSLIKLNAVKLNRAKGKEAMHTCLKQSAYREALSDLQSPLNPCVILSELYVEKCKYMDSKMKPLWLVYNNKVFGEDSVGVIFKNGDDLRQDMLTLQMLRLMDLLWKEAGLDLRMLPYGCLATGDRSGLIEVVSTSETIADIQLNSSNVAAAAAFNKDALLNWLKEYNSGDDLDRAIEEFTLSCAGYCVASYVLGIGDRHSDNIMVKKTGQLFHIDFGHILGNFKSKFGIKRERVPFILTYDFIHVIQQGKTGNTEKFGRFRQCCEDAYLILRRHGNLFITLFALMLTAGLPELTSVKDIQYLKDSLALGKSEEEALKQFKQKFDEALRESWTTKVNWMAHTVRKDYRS

SMILES	Cmax [1] [ng/mL]	IC50 [2] [nM]	inhibition (Mus musculus [4])	IC50 (PI3K p110 beta/p85 alpha) [nM]	AUC(0-inf) [6] [ng·h/mL]	bioavailability [7] [%]	IC50 [8] [nM]	half-life [9] [h]	inhibition (Mus musculus [10])	clearance [11] [mL/min/kg]	inhibition (Mus musculus [12])	Papp A→B at 1.5 h [13] [×10⁻⁶ cm/s]	inhibition (Mus musculus [14])	AUC(0-inf) [16] [ng·h/mL]	half-life [17] [h]	Vd [18] [L/kg]	Papp B→A at 1.5 h [19] [×10⁻⁶ cm/s]	IC50 [20] [nM]	IC50 [21] [nM]	other results
COc1ncc(-c2cc(OC3CCOCC3)c3ncnc(C)c3c2)cc1NS(=O)(=O)c1ccc(F)cc1F	1210	0.6	Dose-dependent effect	0.54	1820	15.8	0.52	0.92	Dose-dependent effect	4.58	Dose-dependent effect	42	Dose-dependent effect	3240	5.57	0.368	39	2.1	3	Kinetic_solubility [3]: Soluble; Therm_solubility [5]: Soluble; Therm_solubility [15]: Soluble
Cc1ccc(=O)n(-c2ccccc2)c1	–	–	–	–	–	–	–	–	–	–	–	–	–	–	–	–	–	–	–	Activity (Mus musculus [22]): Active; Activity (Mus musculus [23]): Active; Activity (Mus musculus [24]): Active; Activity (Mus musculus [25]): Active; Activity (Mus musculus [26]): Active; Activity (Mus musculus [27]): Active; Activity (Mus musculus [28]): Active; Activity (Mus musculus [29]): Active; Activity (Mus musculus [30]): Active; Activity (Mus musculus [31]): Active
COc1ncc(-c2cc(O[C@@H]3CCOC3)c3ncnc(C)c3c2)cc1NS(=O)(=O)c1ccc(F)cc1F	1440	0.88	Dose-dependent effect	0.34	520	58.7	0.35	0.36	Dose-dependent effect	16	Dose-dependent effect	38	Dose-dependent effect	3170	4.08	0.5	37	1.5	10	–
COc1ncc(-c2cc(OC3CCC3)c3ncnc(C)c3c2)cc1NS(=O)(=O)c1ccc(F)cc1F	–	1	–	–	–	–	–	–	–	–	–	44	–	–	–	–	30	–	3	–
COc1ncc(-c2cc(OCC3(C)COC3)c3ncnc(C)c3c2)cc1NS(=O)(=O)c1ccc(F)cc1F	1220	0.87	Dose-dependent effect	0.7	651	53.1	1.1	0.66	Dose-dependent effect	12.8	Dose-dependent effect	46	Dose-dependent effect	3670	4.98	0.733	36	1.6	5	AUC/dose [32]: 734 ng·h/mL per mg/kg; Activity (Mus musculus [33]): Active; Activity (Mus musculus [34]): Active; Activity (Mus musculus [35]): Active; Activity [36]: 0%; Activity (Mus musculus [37]): Active; MTD at 168 h [38]: > 10 mg/kg; Activity [39]: 0%; Activity (Mus musculus [40]): Active; Activity (Mus musculus [41]): Active; Activity (Mus musculus [42]): Active; MTD at 168 h [43]: > 30 mg/kg; Activity (Mus musculus [44]): Active; selectivity ratio [45]: > 10; Activity [46]: 0%; Activity (Mus musculus [47]): Active; Activity (Mus musculus [48]): Active
